Consider 26 compounds from US10550102B2, “Indane and indoline derivatives and the use thereof as soluble guanylate cyclase activators” (NOVARTIS AG, priority 2014, dated 2020).

Sequence of soluble guanylate cyclase (human GUCYA3 and GUCYB3) overexpressed in CHO cells (Q02108 whole entry partner): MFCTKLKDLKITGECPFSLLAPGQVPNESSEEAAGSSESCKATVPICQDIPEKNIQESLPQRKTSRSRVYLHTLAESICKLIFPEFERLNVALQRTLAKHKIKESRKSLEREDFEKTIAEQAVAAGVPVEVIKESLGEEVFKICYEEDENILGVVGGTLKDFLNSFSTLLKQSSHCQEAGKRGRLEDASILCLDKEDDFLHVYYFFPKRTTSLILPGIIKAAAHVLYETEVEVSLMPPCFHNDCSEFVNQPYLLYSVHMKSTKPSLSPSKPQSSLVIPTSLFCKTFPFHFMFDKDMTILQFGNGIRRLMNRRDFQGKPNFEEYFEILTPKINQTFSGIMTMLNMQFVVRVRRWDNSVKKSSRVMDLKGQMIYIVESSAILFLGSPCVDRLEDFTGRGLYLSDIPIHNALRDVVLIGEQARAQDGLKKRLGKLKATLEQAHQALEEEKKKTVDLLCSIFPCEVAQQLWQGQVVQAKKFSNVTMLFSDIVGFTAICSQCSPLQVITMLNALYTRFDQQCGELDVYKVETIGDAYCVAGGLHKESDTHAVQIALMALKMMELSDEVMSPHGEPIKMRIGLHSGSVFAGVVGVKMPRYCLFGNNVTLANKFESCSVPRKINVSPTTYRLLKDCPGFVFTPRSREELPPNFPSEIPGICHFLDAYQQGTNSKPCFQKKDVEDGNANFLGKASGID
Sequence of soluble guanylate cyclase (human GUCYA3 and GUCYB3) overexpressed in CHO cells (Q02153 whole entry): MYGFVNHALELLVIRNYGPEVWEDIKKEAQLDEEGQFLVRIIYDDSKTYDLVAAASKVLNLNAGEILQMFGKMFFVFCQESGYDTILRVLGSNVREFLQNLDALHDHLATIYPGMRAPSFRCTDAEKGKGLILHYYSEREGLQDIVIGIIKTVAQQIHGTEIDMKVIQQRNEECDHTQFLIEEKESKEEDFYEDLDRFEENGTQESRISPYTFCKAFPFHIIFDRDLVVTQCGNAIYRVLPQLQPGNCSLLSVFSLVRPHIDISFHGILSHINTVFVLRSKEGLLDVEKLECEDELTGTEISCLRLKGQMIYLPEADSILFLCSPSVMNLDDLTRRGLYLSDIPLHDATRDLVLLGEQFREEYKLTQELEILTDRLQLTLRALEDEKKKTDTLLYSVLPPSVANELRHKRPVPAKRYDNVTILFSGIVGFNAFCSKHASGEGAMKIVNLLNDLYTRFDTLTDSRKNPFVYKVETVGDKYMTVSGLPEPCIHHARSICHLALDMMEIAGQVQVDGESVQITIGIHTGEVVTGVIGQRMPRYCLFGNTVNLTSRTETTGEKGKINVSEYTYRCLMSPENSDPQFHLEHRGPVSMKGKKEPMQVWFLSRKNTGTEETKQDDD

The assay addresses soluble guanylate cyclase (human GUCYA3 and GUCYB3) overexpressed in CHO cells (Homo sapiens (Human), UniProt Q02108+Q02153). Nature of the assay: CHO cellular assay (cGMP production, Cisbio cGMP HTRF kit). The class given is cell-based. Conditions: CHO GUCY clone 8E10, cGMP production, assay buffer with 1 mM IBMX and 20 uM ODQ, 1 h room temperature; minimum quantification limit 0.5 nM (listed 0.5 nM means ≤0.5 nM); read-out: EC50. In short, it runs like this: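 EC50 was derived by 4-parameter sigmoidal fit of cGMP levels, read by HTRF against a standard curve. Compounds were applied for 1 h at room temperature, in buffer with 20 uM ODQ, 1 mM IBMX and 0.1% BSA (0.5% DMSO final). The cells were a stable CHO-K1 line (clone 8E10) overexpressing human GUCYA3 and GUCYB3, seeded at 3000/well.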
Usually EC50 stands for the midpoint of the concentration-response curve. With `CCc1nc(NC2CCc3cccc(-c4cccc(-n5ncc(C(=O)O)c5CC)n4)c32)ccc1C1CCN(C(=O)C2CC2)CC1` (single isomer, unassigned; (-)) [Example 63b, (−)-1-(6-(3-((5-(1-(Cyclopropanecarbonyl)piperidin-4-yl)-6-ethylpyridin-2-yl)amino)-2,3-dihydro-1H-inden-4-yl)pyridin-2-yl)-5-ethyl-1H-pyrazole-4-carboxylic Acid], the EC50 is 60 nM.
Then `Cc1cc(C2CCN(C(=O)C3CC3)CC2)ccc1OC1CCc2cccc(-c3cccc(-n4ncc(C(=O)O)c4C(F)(F)F)c3)c21` (single isomer, unassigned; (-)) [Example (−)-1. b), (−)-1-(3-(3-(4-(1-(cyclopropanecarbonyl)piperidin-4-yl)-2-methylphenoxy)-2,3-dihydro-1H-inden-4-yl)phenyl)-5-(trifluoromethyl)-1H-pyrazole-4-carboxylic acid], with 10 nM.
Turning to `Cc1cc(C2CCN(C(=O)C3CC3)CC2)ccc1NC1CCc2cccc(-c3cccc(-n4ncc(C(=O)O)c4C(F)(F)F)n3)c21` (single isomer, unassigned; (-)) [Example (−)-8. b), (−)-1-(6-(3-((4-(1-(cyclopropanecarbonyl)piperidin-4-yl)-2-methylphenyl)amino)-2,3-dihydro-1H-inden-4-yl)pyridin-2-yl)-5-(trifluoromethyl)-1H-pyrazole-4-carboxylic Acid], the EC50 came out at 53 nM.
With `Cc1cc(C2CCN(C(=O)C3CC3)CC2)ccc1O[C@H]1CCc2cccc(-c3cccc(-n4ncc(C(=O)O)c4C)c3)c21` [Example 2, (+)-(S)-1-(3-(3-(4-(1-(Cyclopropanecarbonyl)piperidin-4-yl)-2-methylphenoxy)-2,3-dihydro-1H-inden-4-yl)phenyl)-6-methyl-1H-pyrazole-4-carboxylic Acid], the EC50 is 1 nM.
Then `Cc1cc2c(c(-c3cccc(-n4ncc(C(=O)O)c4C(F)(F)F)n3)c1)C(Oc1ccc3c(c1)CCN(Cc1ccccn1)C3)CC2` (centres unmarked) [Example 5-1], with 39 nM; and `Cc1cc2c(c(-c3cccc(-n4ncc(C(=O)O)c4C(F)(F)F)n3)c1)C(Oc1ccc(C3CCN(C(=O)C4CC4)CC3)cc1C)CC2` (centres unmarked) [Example 5-2], with 1 nM.
Then `CCc1cc(O[C@H]2CCc3cccc(-c4cccc(-n5ncc(C(=O)O)c5C(F)(F)F)n4)c32)ccc1C1CCN(C(=O)C2CC2)CC1` [Example 5-3], with no more than 0.5 nM; and `Cc1cc(C2CCN(CC(F)(F)F)CC2)ccc1O[C@H]1CCc2cccc(-c3cccc(-n4ncc(C(=O)O)c4C(F)(F)F)n3)c21` [Example 5-4], with 2 nM.
Next, `Cc1cc(C2CCN(C(=O)C3CC3)CC2)ccc1O[C@H]1CCc2cccc(-c3cccc(-n4cc(C(=O)O)cn4)n3)c21` [Example 5-5]: 2.4 nM; `Cc1cc(C2CCN(C(=O)C3CC3)CC2)ccc1O[C@H]1CCc2cccc(-c3cccc(-n4ncc(C(=O)O)c4C)n3)c21` [Example 5-6]: no more than 0.5 nM; `CCc1c(C(=O)O)cnn1-c1cccc(-c2cccc3c2[C@@H](Oc2ccc(C4CCN(C(=O)C5CC5)CC4)cc2C)CC3)n1` [Example 5-7]: no more than 0.5 nM.
In the case of `CCc1c(C(=O)O)cnn1-c1cccc(-c2cccc3c2[C@@H](Oc2ccc(C4CCN(CC(F)(F)F)CC4)cc2C)CC3)n1` [Example 5-8], the concentration giving a half-maximal response (EC50) was 1 nM.
Next, `CCc1cc(O[C@H]2CCc3cccc(-c4cccc(-n5ncc(C(=O)O)c5CC)n4)c32)ccc1C1CCN(C(=O)C2CC2)CC1` [Example 5-9]: no more than 0.5 nM; `O=C(O)c1cnn(-c2cccc(-c3cccc4c3C(Nc3ccc(C5CCN(C(=O)C6CC6)CC5)cc3)CC4)n2)c1C(F)(F)F` (centres unmarked) [Example 11-2]: 1 nM.
Then `CCc1c(C(=O)O)cnn1-c1cccc(-c2cccc3c2C(Nc2ccc(C4CCN(CC(F)(F)F)CC4)cc2C)CC3)n1` (centres unmarked) [Example 11-3], with 1.4 nM; and `O=C(O)c1cnn(-c2cccc(-c3cccc4c3N(Cc3ccc(C5CCN(C(=O)C6CC6)CC5)cc3)CC4)n2)c1C(F)(F)F` [Example 12, 1-(6-(1-(4-(1-(Cyclopropanecarbonyl)piperidin-4-yl)benzyl)indolin-7-yl)pyridin-2-yl)-5-(trifluoromethyl)-1H-pyrazole-4-carboxylic Acid], with 1 nM; and `CCc1cc(CN2CCc3cccc(-c4cccc(-n5ncc(C(=O)O)c5C(F)(F)F)n4)c32)ccc1C1CCN(C(=O)C2CC2)CC1` [Example 13], with no more than 0.5 nM.
For `CCc1cc(CN2CCc3cccc(-c4cccc(-n5ncc(C(=O)O)c5CC)n4)c32)ccc1C1CCN(C(=O)C2CC2)CC1` [Example 14, 1-(6-(1-(4-(1-(Cyclopropanecarbonyl)piperidin-4-yl)-3-ethylbenzyl)indolin-7-yl)pyridin-2-yl)-5-ethyl-1H-pyrazole-4-carboxylic Acid], the EC50 was no more than 0.5 nM.
Then `CCc1cc(CN2CCc3cccc(-c4cccc(-n5ncc(C(=O)O)c5C(F)(F)F)n4)c32)ccc1C1CCN(CC(F)(F)F)CC1` [Example 15], with 1.5 nM; and `CCc1cc(CN2CCc3cccc(-c4cccc(-n5ncc(C(=O)O)c5CC)n4)c32)ccc1C1CCN(CC(F)(F)F)CC1` [Example 16, 5-Ethyl-1-(6-(1-(3-ethyl-4-(1-(2,2,2-trifluoroethyl)piperidin-4-yl)benzyl)indolin-7-yl)pyridin-2-yl)-1H-pyrazole-4-carboxylic Acid], with 3.5 nM.
Turning to `CCc1c(C(=O)O)cnn1-c1cccc(-c2cccc3c2N(Cc2ccc(C4CCN(C(=O)[C@H](C)O)CC4)cc2C)CC3)n1` [Example 18, (S)-5-Ethyl-1-(6-(1-(4-(1-(2-hydroxypropanoyl)piperidin-4-yl)-2-methylbenzyl)indolin-7-yl)pyridin-2-yl)-1H-pyrazole-4-carboxylic Acid], the EC50 came out at 1.4 nM.
Then `CCc1c(C(=O)O)cnn1-c1cccc(-c2cccc3c2N(Cc2ccc(C4CCN(C(=O)C5CC5)CC4)cc2C)CC3)n1` [Example 21-2, 1-(6-(1-(4-(1-(Cyclopropanecarbonyl)piperidin-4-yl)-2-methylbenzyl)indolin-7-yl)pyridin-2-yl)-5-ethyl-1H-pyrazole-4-carboxylic acid], with no more than 0.5 nM.
Then `CCc1cc(CN2CC(C)(C)c3cccc(-c4cccc(-n5ncc(C(=O)O)c5CC)n4)c32)ccc1C1CCN(C(=O)C2CC2)CC1` [Example 23], with 2 nM; and `Cc1cc(C2CCN(C3CC3)CC2)ccc1CN1CCc2cccc(-c3cccc(-n4ncc(C(=O)O)c4C)n3)c21` [Example 24, 1-(6-(1-(4-(1-Cyclopropylpiperidin-4-yl)-2-methylbenzyl)indolin-7-yl)pyridin-2-yl)-5-methyl-1H-pyrazole-4-carboxylic Acid], with 7.9 nM; and `O=C(O)c1cnn(-c2cccc(-c3cccc4c3N(Cc3ccc5c(c3)CCN(Cc3ccccn3)C5)CC4)n2)c1C(F)(F)F` [Example 25, 1-(6-(1-((2-(Pyridin-2-ylmethyl)-1,2,3,4-tetrahydroisoquinolin-6-yl)methyl)indolin-7-yl)pyridin-2-yl)-5-(trifluromethyl)-1H-pyrazole-4-carboxylic Acid], with 2.4 nM.
Next, `O=C(O)c1cnn(-c2cccc(-c3cccc4ccn(Cc5ccc(C6CCN(C(=O)C7CC7)CC6)cc5)c34)n2)c1C(F)(F)F` [Example 26, 1-(6-(1-(4-(1-(Cyclopropanecarbonyl)piperidin-4-yl)benzyl)-1H-indol-7-yl)pyridin-2-yl)-5-(trifluoromethyl)-1H-pyrazole-4-carboxylic Acid]: 21 nM.
